Assay results as given in PubChem BioAssay AID330 (DTP/NCI, 2004).
“And” between values parts separate entries of the source, which are not always exact repeats. Equal entries are not always repeated. Toxic doses and inconclusive results are not listed. Peptide text beside a SMILES is read from it. * marks the point of attachment. Trt = c1ccc(C(c2ccccc2)(c2ccccc2)*)cc1; Boc = CC(C)(C)OC(=O)*; Bn = c1ccc(C*)cc1

System: P388 leukemia ip, CD2F1 mice, survival T/C
Assay: NCI In Vivo Anticancer Drug Screen. Data for tumor model P388 Leukemia (intraperitoneal) in CD2F1 (CDF1) mice
Conditions: endpoint: median survival time, higher = longer survival
How it was run: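 Mice carrying the transplanted tumor received test compound or vehicle. Survival was recorded in each group, and the value is the treated-group measurement divided by that of the vehicle-treated control group.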

[1] = dose: 50.0 mg/kg/injection, schedule: Q01DX005 (ip), vehicle: Klucel (hydroxypropylcellulose) (HPC)
[2] = dose: 100.0 mg/kg/injection, schedule: Q01DX005 (ip), vehicle: Klucel (hydroxypropylcellulose) (HPC)
[3] = dose: 200.0 mg/kg/injection, schedule: Q01DX005 (ip), vehicle: Klucel (hydroxypropylcellulose) (HPC)
[4] = dose: 60.0 mg/kg/injection, schedule: Q01DX005 (ip), vehicle: saline with Tween-80
[5] = dose: 120.0 mg/kg/injection, schedule: Q01DX005 (ip), vehicle: saline with Tween-80
[6] = dose: 240.0 mg/kg/injection, schedule: Q01DX005 (ip), vehicle: saline with Tween-80

For CCN(CC)C1CC(O[C@H]2C[C@](O)(C(=O)CO)Cc3c(O)c4c(c(O)c32)C(=O)c2c(OC)cccc2C4=O)OC(C)C1O (some centres not stated), the T/C (dose: 1.56 mg/kg/injection, schedule: Q01DX009 (ip), vehicle: water) was 153 % of control and the T/C (dose: 3.13 mg/kg/injection, schedule: Q01DX009 (ip), vehicle: water) was 165 % of control and 178 % of control.
Nc1cc(N)cc(C(=O)c2ccccc2)c1 was tested, and the T/C (dose: 100.0 mg/kg/injection, schedule: Q01DX009 (ip), vehicle: saline with Tween-80) was 95 % of control, the T/C (dose: 200.0 mg/kg/injection, schedule: Q01DX009 (ip), vehicle: saline with Tween-80) was 95 % of control and the T/C (dose: 400.0 mg/kg/injection, schedule: Q01DX009 (ip), vehicle: saline with Tween-80) was 90 % of control.
With CCOC(=O)CNC(=O)C(CSCc1ccccc1)NC(=O)C(CSC(c1ccccc1)(c1ccccc1)c1ccccc1)NC(=O)OC(C)(C)C (configuration not stated) (Boc-Cys(Trt)-Cys(Bn)-Gly-OEt; configuration not given here) the T/C [1] was 101 % of control, the T/C [2] was 101 % of control and the T/C [3] was 99 % of control.
CN(C)c1nc(Cl)nc2c1nc(Cl)n2C1CCCCO1 (configuration not stated) was tested, and the T/C [1] was 93 % of control, the T/C [2] was 90 % of control and the T/C [3] was 102 % of control.
With COC(=O)C1=CCC[C@H]2C1(C)CCC(C)C21CC(c2ccoc2)OC1=O (some centres not stated) the T/C (dose: 3.5 mg/kg/injection, schedule: Q01DX005 (ip), vehicle: Klucel (hydroxypropylcellulose) (HPC)) was 106 % of control, the T/C (dose: 7.0 mg/kg/injection, schedule: Q01DX005 (ip), vehicle: Klucel (hydroxypropylcellulose) (HPC)) was 91 % of control and the T/C (dose: 14.0 mg/kg/injection, schedule: Q01DX005 (ip), vehicle: Klucel (hydroxypropylcellulose) (HPC)) was 95 % of control. The T/C (dose: 28.0 mg/kg/injection, schedule: Q01DX005 (ip), vehicle: Klucel (hydroxypropylcellulose) (HPC)) was 91 % of control and the T/C [1] was 92 % of control.
O=C(NCCCl)Nc1[nH]c(=O)ncc1I was tested, and the T/C (dose: 1.88 mg/kg/injection, schedule: Q01DX005 (ip), vehicle: saline with Tween-80) was 101 % of control, the T/C (dose: 3.75 mg/kg/injection, schedule: Q01DX005 (ip), vehicle: saline with Tween-80) was 101 % of control and the T/C (dose: 7.5 mg/kg/injection, schedule: Q01DX005 (ip), vehicle: saline with Tween-80) was 100 % of control. For the same compound, the T/C [4] was 95 % of control.
For NC(N)=NN=c1/c(=N\N=C(N)N)c2cc3ccccc3cc2/c1=N/N=C(N)N, the T/C (dose: 6.25 mg/kg/injection, schedule: Q01DX001 (ip), vehicle: saline) was 102 % of control, the T/C (dose: 12.5 mg/kg/injection, schedule: Q01DX001 (ip), vehicle: saline) was 96 % of control and the T/C (dose: 25.0 mg/kg/injection, schedule: Q01DX001 (ip), vehicle: saline) was 96 % of control and 97 % of control.
With O=C1c2ccsc2CN2C(=O)CCC12 (configuration not stated) the T/C [4] was 95 % of control, the T/C [5] was 103 % of control and the T/C [6] was 110 % of control.
CCN(CC)Cc1cc(C)c(O)c(N=Nc2ccc([N+](=O)[O-])c(OC)c2)c1C was tested, and the T/C (dose: 100.0 mg/kg/injection, schedule: Q04DX003 (ip), vehicle: saline with Tween-80) was 92 % of control, the T/C (dose: 200.0 mg/kg/injection, schedule: Q04DX003 (ip), vehicle: saline with Tween-80) was 99 % of control and the T/C (dose: 400.0 mg/kg/injection, schedule: Q04DX003 (ip), vehicle: saline with Tween-80) was 119 % of control.
In the case of O=C(NC(Cc1ccc(Cl)cc1)C(=O)O)c1ccccc1 (configuration not stated), the T/C (dose: 25.0 mg/kg/injection, schedule: Q01DX009 (ip), vehicle: other) was 98 % of control, the T/C (dose: 50.0 mg/kg/injection, schedule: Q01DX009 (ip), vehicle: other) was 97 % of control and the T/C (dose: 100.0 mg/kg/injection, schedule: Q01DX009 (ip), vehicle: other) was 106 % of control.
O=C(O)c1cn2c(n1)sc1ccccc12 was tested, and the T/C (dose: 100.0 mg/kg/injection, schedule: Q01DX001 (ip), vehicle: Klucel (hydroxypropylcellulose) (HPC)) was 97 % of control, the T/C (dose: 200.0 mg/kg/injection, schedule: Q01DX001 (ip), vehicle: Klucel (hydroxypropylcellulose) (HPC)) was 92 % of control and the T/C (dose: 400.0 mg/kg/injection, schedule: Q01DX001 (ip), vehicle: Klucel (hydroxypropylcellulose) (HPC)) was 96 % of control.
In the case of O=C1CSC(c2ccccc2Cl)N1c1nncs1 (configuration not stated), the T/C [4] was 103 % of control, the T/C [5] was 98 % of control and the T/C [6] was 104 % of control.
In the case of Cc1nnc(-n2cccc2)s1, the T/C (dose: 12.5 mg/kg/injection, schedule: Q01DX009 (ip), vehicle: Klucel (hydroxypropylcellulose) (HPC)) was 105 % of control, the T/C (dose: 25.0 mg/kg/injection, schedule: Q01DX009 (ip), vehicle: Klucel (hydroxypropylcellulose) (HPC)) was 104 % of control and 95 % of control and the T/C (dose: 50.0 mg/kg/injection, schedule: Q01DX009 (ip), vehicle: Klucel (hydroxypropylcellulose) (HPC)) was 100 % of control and 106 % of control. For the same compound, the T/C (dose: 100.0 mg/kg/injection, schedule: Q01DX009 (ip), vehicle: Klucel (hydroxypropylcellulose) (HPC)) was 100 % of control and 111 % of control.
